Tested on: 521955-158-R2-J5-PDC complex spheroid growth, % test/control
Experiment: Anticancer human tumor 521955-158-R2-J5-PDC patient-derived pancreatic carcinoma cell line growth inhibition [Asc]
Conditions: for IC50: curve of first compound; for viability, T/C: stronger effect = lower value
Method in brief: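 Tumor cells were grown as complex spheroids with human endothelial cells (HUVEC) and human mesenchymal stem cells as stroma. Agents were tested alone and in combination, in half-log steps down from the clinical Cmax, or from 10 microM where Cmax was unknown.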
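Note: spheroids exposed to agents for 7 days before readout.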
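Throughout, for viability, T/C: 100% = DMSO vehicle control viability.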

`COc1c(OCCCN2CCOCC2)ccc2c3n(c(=NC(=O)c4cnc(N)nc4)nc12)CCN3` + CCN1C(C(=O)NC23CCC(C(=O)O)(CC2)CC3)C(c2cccc(Cl)c2F)C2(C(=O)Nc3cc(Cl)ccc32)C12CCCCC2 gave an IC50 (second compound 0.03 µM) of 4.56 nM, an IC50 (second compound 0.0949 µM) of 9.08 nM and an IC50 (second compound 0.3 µM) of 7.14 nM. The IC50 (second compound 0.949 µM) was 10.6 nM, the IC50 (second compound 3 µM) was 30.2 nM and the viability, T/C (second compound 0.03 µM, first compound 0.00316 µM) was 53.5%. It also gave a viability, T/C (second compound 0.03 µM, first compound 0.01 µM) of 43.2%, a viability, T/C (second compound 0.03 µM, first compound 0.0316 µM) of 34.5% and a viability, T/C (second compound 0.03 µM, first compound 0.1 µM) of 30.3%. For the same compound, the viability, T/C (second compound 0.03 µM, first compound 0.316 µM) was 24.3%, the viability, T/C (second compound 0.03 µM, first compound 1 µM) was 17.3% and the viability, T/C (second compound 0.0949 µM, first compound 0.00316 µM) was 61.1%. For the same compound, the viability, T/C (second compound 0.0949 µM, first compound 0.01 µM) was 47.8%, the viability, T/C (second compound 0.0949 µM, first compound 0.0316 µM) was 38.2% and the viability, T/C (second compound 0.0949 µM, first compound 0.1 µM) was 30.3%. It also gave a viability, T/C (second compound 0.0949 µM, first compound 0.316 µM) of 19%, a viability, T/C (second compound 0.0949 µM, first compound 1 µM) of 15.2% and a viability, T/C (second compound 0.3 µM, first compound 0.00316 µM) of 60.2%. For the same compound, the viability, T/C (second compound 0.3 µM, first compound 0.01 µM) was 40.4%, the viability, T/C (second compound 0.3 µM, first compound 0.0316 µM) was 43.3% and the viability, T/C (second compound 0.3 µM, first compound 0.1 µM) was 31%. It also gave a viability, T/C (second compound 0.3 µM, first compound 0.316 µM) of 24.2%, a viability, T/C (second compound 0.3 µM, first compound 1 µM) of 23.1% and a viability, T/C (second compound 0.949 µM, first compound 0.00316 µM) of 71.6%. The viability, T/C (second compound 0.949 µM, first compound 0.01 µM) was 44.7%, the viability, T/C (second compound 0.949 µM, first compound 0.0316 µM) was 40.5% and the viability, T/C (second compound 0.949 µM, first compound 0.1 µM) was 31.5%. For the same compound, the viability, T/C (second compound 0.949 µM, first compound 0.316 µM) was 23.2%, the viability, T/C (second compound 0.949 µM, first compound 1 µM) was 15.8% and the viability, T/C (second compound 3 µM, first compound 0.00316 µM) was 93.6%. It also gave a viability, T/C (second compound 3 µM, first compound 0.01 µM) of 74.2%, a viability, T/C (second compound 3 µM, first compound 0.0316 µM) of 43.5% and a viability, T/C (second compound 3 µM, first compound 0.1 µM) of 37.3%. For the same compound, the viability, T/C (second compound 3 µM, first compound 0.316 µM) was 22.5% and the viability, T/C (second compound 3 µM, first compound 1 µM) was 16.7%.

`NC(=O)C(=Cn1cnc(-c2cc(C(F)(F)F)cc(C(F)(F)F)c2)n1)c1cncnc1` + CCN1C(C(=O)NC23CCC(C(=O)O)(CC2)CC3)C(c2cccc(Cl)c2F)C2(C(=O)Nc3cc(Cl)ccc32)C12CCCCC2 showed an IC50 (second compound 0.03 µM) of 6.31 nM, an IC50 (second compound 0.0949 µM) of 2.84 nM and an IC50 (second compound 0.3 µM) of 5.68 nM. It also gave an IC50 (second compound 0.949 µM) of 6.71 nM, an IC50 (second compound 3 µM) of 10.1 nM and a viability, T/C (second compound 0.03 µM, first compound 0.000949 µM) of 57.6%. For the same compound, the viability, T/C (second compound 0.03 µM, first compound 0.003 µM) was 62.8%, the viability, T/C (second compound 0.03 µM, first compound 0.00949 µM) was 44.4% and the viability, T/C (second compound 0.03 µM, first compound 0.03 µM) was 34.9%. For the same compound, the viability, T/C (second compound 0.03 µM, first compound 0.0949 µM) was 30.7%, the viability, T/C (second compound 0.03 µM, first compound 0.3 µM) was 38.5% and the viability, T/C (second compound 0.0949 µM, first compound 0.000949 µM) was 103%. It also gave a viability, T/C (second compound 0.0949 µM, first compound 0.003 µM) of 45.5%, a viability, T/C (second compound 0.0949 µM, first compound 0.00949 µM) of 47.2% and a viability, T/C (second compound 0.0949 µM, first compound 0.03 µM) of 41.7%. It also gave a viability, T/C (second compound 0.0949 µM, first compound 0.0949 µM) of 33%, a viability, T/C (second compound 0.0949 µM, first compound 0.3 µM) of 36.2% and a viability, T/C (second compound 0.3 µM, first compound 0.000949 µM) of 76.5%. It also gave a viability, T/C (second compound 0.3 µM, first compound 0.003 µM) of 51.3%, a viability, T/C (second compound 0.3 µM, first compound 0.00949 µM) of 50.5% and a viability, T/C (second compound 0.3 µM, first compound 0.03 µM) of 38.3%. The viability, T/C (second compound 0.3 µM, first compound 0.0949 µM) was 33.6%, the viability, T/C (second compound 0.3 µM, first compound 0.3 µM) was 32.8% and the viability, T/C (second compound 0.949 µM, first compound 0.000949 µM) was 94.2%. It also gave a viability, T/C (second compound 0.949 µM, first compound 0.003 µM) of 58.1%, a viability, T/C (second compound 0.949 µM, first compound 0.00949 µM) of 47.9% and a viability, T/C (second compound 0.949 µM, first compound 0.03 µM) of 42%. It also gave a viability, T/C (second compound 0.949 µM, first compound 0.0949 µM) of 35.7%, a viability, T/C (second compound 0.949 µM, first compound 0.3 µM) of 43.8% and a viability, T/C (second compound 3 µM, first compound 0.000949 µM) of 109%. The viability, T/C (second compound 3 µM, first compound 0.003 µM) was 75.6%, the viability, T/C (second compound 3 µM, first compound 0.00949 µM) was 53.1% and the viability, T/C (second compound 3 µM, first compound 0.03 µM) was 34.5%. The viability, T/C (second compound 3 µM, first compound 0.0949 µM) was 49.9% and the viability, T/C (second compound 3 µM, first compound 0.3 µM) was 45.4%.

From PubChem BioAssay AID1963430 (Molecular Pharmacology Branch, DTP, NCI, 2024)
